One assay relates to Trichophyton rubrum. Put plainly: Antifungal activity against Trichophyton rubrum after 48 hrs. In kind it is functional.
Assay [1] relates to Staphylococcus epidermidis. Put plainly: Antibacterial activity against Staphylococcus epidermidis ATCC 12228 after 18 hrs. In kind it is functional. Particulars: ATCC 12228, 18 h.

Each structure is given as a SMILES string. Values after ≈ are worked out from the molar mass of the structure shown.

A word on the MIC: it is the least concentration at which growth counts as inhibited. A low value points to a more susceptible organism. Turning to `C[C@@H]1[C@H](O)[C@@H](C)/C=C/C=C/C=C/C=C/C=C/C=C/C=C/[C@H](O[C@@H]2O[C@H](C)[C@@H](O)[C@H](N)[C@@H]2O)C[C@@H]2O[C@](O)(C[C@@H](O)C[C@@H](O)[C@H](O)CC[C@@H](O)C[C@@H](O)CC(=O)O[C@H]1C)C[C@H](O)[C@H]2C(=O)O` [AMPHOTERICIN B], the minimum inhibitory concentration (MIC) against Trichophyton rubrum was found to be 1.56 µg/mL (≈ 1.69 µM). As for `CC1COc2c(N3CCN(C)CC3)c(F)cc3c(=O)c(C(=O)O)cn1c23` (stereo not drawn) [OFLOXACIN], inhibition of growth in assay [1] (MIC) required 0.39 µg/mL (≈ 1.08 µM). Take `C=C[C@@]1(C)CC[C@H]2[C@@](O)(CC[C@@H]3[C@]2(C)CCC[C@]3(C)C(=O)O)C1` [TOONACILIATIN M]: it took 12.5 µg/mL (≈ 39 µM) to inhibit growth with Trichophyton rubrum (MIC).

For the origin of these results see ChEMBL document CHEMBL1151845, “Terpenoids from Toona ciliata” (2009).
